Data from PMC6896057, “Dual PDK1/Aurora Kinase A Inhibitors Reduce Pancreatic Cancer Cell Proliferation and Colony Formation” (Cancers, 2019).

What was measured:
Format in all cases: cell-based, human
[1] = system: phosphorylation of Aurora A at Thr288 in AsPC-1; assay: Western blot, Aurora A phosphorylation at Thr288, nocodazole-synchronized cells; conditions: 10 µM, 1 h, nocodazole 200 ng/mL
Protocol: (§1) Lysates were then assessed by Western blotting using the indicated antibodies. Representative blots of at least three independent experiments are shown. In all blots, Akt total (A,B) and α-actinin (C,D) were used as loading control. In (A,B) membranes incubated with pAkt (Thr308) were stripped and re-incubated with anti Akt. The percentage of phosphorylated Akt is calculated by normalization to the loading control total Akt. In (C,D) membranes incubated with pAurora (Thr288) were stripped and re-incubated with anti-Aurora A. The percentage of phosphorylated Aurora A is calculated by normalization to the loading control α-actinin.
(§2) Cells (300,000 per well) from different cell lines were seeded in six-well plates. The next day, five wells were stimulated with nocodazole 200 ng/mL for 24 h. […] To analyze the expression of phosphorylated PLCγ, cells were incubated overnight in serum-free culture media. […] Supernatants were transferred in a 1.5 mL Eppendorf tube and protein concentrations were determined using the Direct Detect Assay-Free cards and the Direct Detect Spectrometer (Merck Millipore, Decantur, IL, USA). […]

[2] = system: phosphorylation of Aurora A at Thr288 in HPAF-II; assay: as above; conditions: 10 µM, 1 h, nocodazole 200 ng/mL
Protocol: as §1, §2

[3] = system: PLK1 Thr210 phosphorylation in AsPC-1; assay: Western blot, phosphorylation of PLK1 at Thr210, nocodazole-synchronized cells; conditions: 5 μM, 1 h, nocodazole 200 ng/mL
Protocol: (§3) Lysates were then assessed by Western blotting using the indicated antibodies. Representative blots of at least three independent experiments are shown. The percentage of phosphorylated PLCγ1 is calculated by normalization to the loading control GAPDH. […] The percentage of phosphorylated PLK1 is calculated by normalization to the loading control α-actinin. […] The percentage of phosphorylated Histone H3 is calculated by normalization to the loading control α-actinin.
(§4) Cells (300,000 per well) from different cell lines were seeded in six-well plates. The next day, five wells were stimulated with nocodazole 200 ng/mL for 24 h. […] To analyze the expression of phosphorylated PLCγ, cells were incubated overnight in serum-free culture media. […] Cells were then collected by scraping and lysed in cold radioimmunoprecipitation assay buffer (150 mM sodium chloride, 1.0% NP-40 or Triton X-100, 0.5% sodium deoxycholate, 0.1% sodium dodecyl sulphate, 50 mM Tris HCl, pH 8.0) supplemented with 1X Protease/Phosphatase Inhibitor Cocktail (100X stock, Sigma Aldrich, St. Louis, MO, USA). Lysates were sonicated at 4 °C and centrifuged at 10,000 g for 10 min at 4 °C. Supernatants were transferred in a 1.5 mL Eppendorf tube and protein concentrations were determined using the Direct Detect Assay-Free cards and the Direct Detect Spectrometer (Merck Millipore, Decantur, IL, USA). […]

[4] = system: PLK1 Thr210 phosphorylation in HPAF-II; assay: as above; conditions: 5 μM, 1 h, nocodazole 200 ng/mL
Protocol: as §3, §4

[5] = system: phosphorylation of Akt at Thr308 in AsPC-1; assay: Western blot, FBS-induced phosphorylation of Akt at Thr308; conditions: 5 μM, FBS 1 h
Protocol: as §1
(§5) Cells (300,000 per well) from different cell lines were seeded in six-well plates. The next day, five wells were stimulated with nocodazole 200 ng/mL for 24 h. Then four wells were treated for 2 h with the inhibitors of interest. To analyze the expression of phosphorylated PLCγ, cells were incubated overnight in serum-free culture media. […] Supernatants were transferred in a 1.5 mL Eppendorf tube and protein concentrations were determined using the Direct Detect Assay-Free cards and the Direct Detect Spectrometer (Merck Millipore, Decantur, IL, USA). […]

[6] = system: phosphorylation of Akt at Thr308 in HPAF-II; assay: as above; conditions: 5 μM, FBS 1 h
Protocol: as §1, §5

[7] = system: PLCγ1 Tyr783 phosphorylation in AsPC-1; assay: Western blot, EGF-induced phosphorylation of PLCγ1 at Tyr783; conditions: 5 μM, 30 min, then EGF 25 ng/mL 10 min
Protocol: as §3
(§6) Cells (300,000 per well) from different cell lines were seeded in six-well plates. The next day, five wells were stimulated with nocodazole 200 ng/mL for 24 h. Then four wells were treated for 2 h with the inhibitors of interest. To analyze the expression of phosphorylated PLCγ, cells were incubated overnight in serum-free culture media. […] Cells were then collected by scraping and lysed in cold radioimmunoprecipitation assay buffer (150 mM sodium chloride, 1.0% NP-40 or Triton X-100, 0.5% sodium deoxycholate, 0.1% sodium dodecyl sulphate, 50 mM Tris HCl, pH 8.0) supplemented with 1X Protease/Phosphatase Inhibitor Cocktail (100X stock, Sigma Aldrich, St. Louis, MO, USA). […] Supernatants were transferred in a 1.5 mL Eppendorf tube and protein concentrations were determined using the Direct Detect Assay-Free cards and the Direct Detect Spectrometer (Merck Millipore, Decantur, IL, USA). […]

[8] = system: PLCγ1 Tyr783 phosphorylation in HPAF-II; assay: as above; conditions: 5 μM, 30 min, then EGF 25 ng/mL 10 min
Protocol: as §3, §6

| SMILES | effect on phosphorylation of Aurora A at Thr288 [1] | effect on phosphorylation of Aurora A at Thr288 [2] | effect on phosphorylation of PLK1 at Thr210 [3] | effect on phosphorylation of PLK1 at Thr210 [4] | effect on FBS-induced phosphorylation of Akt at Thr308 [5] | effect on FBS-induced phosphorylation of Akt at Thr308 [6] | effect on EGF-induced activation of PLCγ1 (Tyr783) [7] | effect on EGF-induced activation of PLCγ1 (Tyr783) [8] |
| --- | --- | --- | --- | --- | --- | --- | --- | --- |
| CCN1CCN(C(=O)Cc2ccc(Nc3ncc(F)c(Nc4ccc(C(=O)Nc5ccccc5Cl)cc4)n3)cc2)CC1 [Aur I] | efficiently reduced | efficiently reduced | reduction in the phosphorylation of PLK1 | reduction in the phosphorylation of PLK1 | – | – | – | – |
| CNc1nc(-c2ccc3c(N)n[nH]c3c2)cc(N2C[C@@H](C(=O)NC3CCCCC3)CC[C@H]2C)n1 [GSK2334470] | – | – | – | – | efficiently reduced | efficiently reduced | strongly reduced | strongly reduced |
